Data from patent publication US9446051B2, “Neuroprotection and myelin repair using nestorone®” (The Population Council, Inc., priority 2009, dated 2016).

How the values were obtained:
[1] = test system: primary hippocampal neurons; assay: Neuroprotection of primary hippocampal neurons against glutamate, LDH release; format: cell-based
Method: The effect of NES and other progestins on CNS plasticity and the neuroprotective efficacy against glutamate toxicity has also been evaluated. LDH was measured, as a well-accepted assay, to determine such effect after exposure of the cells to glutamate, and the neuronal viability was assessed under the action of various progestins.
Comparisons of neuroprotection against neurodegenerative insults were carried out. Efficacy was determined in connection with the protection of primary hippocampal neurons against degeneration induced by excitoxic glutamate. Hippocampal neuronal cultures grown on […] culture plates for 7d in vitro were pretreated with vehicle alone or test compounds, followed by exposure to 200 μM glutamate as previously described (13). After glutamate exposure, cultures were washed with HEPES-buffered saline solution and replaced with fresh NBM containing the test compounds or combinations. Cultures were returned to the incubator and incubated for 24 hours prior to analysis of neuronal viability using colorimetric LDH release in the media. Dose-response analysis was conducted for each of the progestins tested, and the results are shown in FIGS. 7A-F. Neuroprotective efficiency was calculated as follows: NE=(Vsample−Vglutamate)/(Vsubcontrol−Vglutamate).

[2] = test system: hippocampi of ovariectomized female Sprague Dawley rats; format: in vivo; details: progestin plus E2, hippocampi 24 hours after injection, FIG. 9A
Method: The impact of the combination of 17β-estradiol (E2) and various progestins on neurogenesis and cell viability […] was also carried out. Young adult ovariectomized female Sprague Dawley rates were thus divided into six groups and received injection of either E2 alone or E2 combined with one of the progestins. Hippocampi were isolated 24 hours later for Western blot analysis and flow cytometry to determine the impact of treatment on cell viability and neurogenesis respectively. The expression level of PCNA was assessed to determine the impact of the treatment compounds on entry into the cell cycle required for neurogenesis.

[3] = test system: lysolecithin-demyelinated cerebellar slices; assay: Remyelination of lysolecithin-demyelinated cerebellar slices (MBP staining intensity); format: cell-based, rat or mouse; details: NES 20 μM, 3 days of incubation
Method: In the same animal model, cerebellar slices were cultured until myelination was complete, then incubated overnight with lysolecithin (LYSO) to produce demyelination utilizing a known technique, (15) followed by 3 days of incubation with NES 20 μM in fresh culture medium (10% penetration in slices). Slices were immunostained for MBP. […] MBP staining intensity was measured in cerebellar slices after completion of normal myelination, after demyelination with lysolecithin, and after 3 days of incubation with NES at 20 μm, RU486 at 10 μM, or NES+RU486.

[4] = test system: hippocampus of Sprague-Dawley ovariectomized female rats; assay: In vivo NPC proliferation and cell viability in ovariectomized rats (Western blot, FACS of BrdU+ cells); set-up: species or system rat
Method: The generalized ability of the above in vitro findings to the in vivo condition were investigated. Analyses of NPC proliferation in rats and cell viability were conducted in three-month-old Sprague-Dawley ovariectomized female rats with various of the progestins. […] In order to assess the total number of BrdU+ cells, the contralateral hippocampal hemisphere used for protein analysis was fixed and processed by FACS analysis. The total number of BrdU+ cells per each hippocampus was determined and normalized to that of vehicle control. […] In order to measure cell viability in terms of promotion of mitochondrial function and reduction in oxidative damage expression of the alpha subunit of ATP synthase-Complex V (CVα) of the mitochondrial oxidative phosphorylation pathway was assessed by Western blot analysis.

Bax/Bcl-2 = assay: In vivo apoptotic activity, Bax/Bcl-2 ratio by Western blot; details: indicator of in vivo apoptotic activity
Source text: The effects of various progestins on apoptosis was studied using Western blot analysis to determine the expression level of Bax, an apoptosis mediator by […] to the mitochondria to release apoptotic factors such as cytochrome c and Bcl-2. The ratio of Bax to Bcl-2 was used as an indicator of in vivo apoptotic activity.

[5] = test system: androgenic, estrogenic and glucocorticoid responses; details: cited from earlier work
[6] = test system: neural progenitor cell (NPC); assay: Neural progenitor cell proliferation, BrdU chemiluminescence ELISA; format: cell-based, rat
Method: In vitro studies were carried out to determine neural progenitor cell (NPC) regeneration in rats. Cell proliferation was determined by S phase incorporation of BrdU. After 4 to 6 hours starvation (medium without supplements), rNPCs were loaded with 10 μM BrdU in the presence or absence of bFGF and varying concentrations of P4 or test progestins in unsupplemented maintenance medium for 1d. The rNPCs were then processed as described previously (1, 14). After subtracting the value of the blank (without BrdU loading), data were analyzed using a one-way ANOVA, followed by a Neuman-Keuls post hoc test.

PR^lacz mice with MCAO = assay: Transient middle cerebral artery occlusion (MCAO), steroid treatment after reperfusion; format: in vivo, mouse
Method: In experiments conducted using progesterone receptor (PR) deficient mice (PR^−/−) compared with PR^+/− and PR^+/+ mice and both progesterone and Nestorone® were administered after ischemia and reperfusion.
In order to test the effect of steroid treatments after reperfusion, adult male PR^lacz mice were anesthetized and the middle cerebral artery (MCA) was occluded for one hour with an intraluminal filament. After ligature of the left common carotid artery, a nylon monofilament coated with thermo-melting glue was introduced through an arteriotomy performed on the external carotid artery and advanced into the internal carotid artery. Occlusion of the MCA was controlled by monitoring the cerebral blood flow within the MCA territory by laser Doppler flowmetry. The filament was withdrawn one hour after occlusion to allow reperfusion, and the common carotid artery ligature was also removed. The mice were randomly and blindly assigned to either progesterone, allopregnanolone or Nestorone®, or vehicle-treated (sesame oil; sigma). All of the steroids were initially dissolved in a small volume of ethanol and further diluted in sesame oil to obtain the desired final steroid concentrations. Injections were given interperitoneally (IP) at 1, 6, and 24 hours after MCA occlusion (MCAO) according to established neuroprotective protocols. Treated mice were killed at 48 hours after MCAO.
Cerebral infarct volumes and areas were determined after triphenyltetrazolium chloride (TTC) staining of brain sections. The details of this procedure are set forth in “Progesterone Receptors: A Key For Neuroprotection In Experimental Stroke,” Endocrinology, August 2012, 153(8), pp. 1-11, which is incorporated herein by reference thereto in its entirety. […] In FIGS. 11, 12 and 13, after the administration of progesterone and Nestorone®, in neuronal density the infarct (FIG. 11) and the penumbra (FIG. 12) can clearly be shown. In FIG. 13 the decrease in […] in the penumbra after administration of progesterone and Nestorone® is also clearly shown.

[7] = test system: organotypic neonatal rat or mouse cerebellar slice culture; assay: Myelination in organotypic cerebellar slice culture, measured by myelin basic protein (MBP) immunoreactivity; format: cell-based
Source text: In experiments conducted in organotypic neonatal rat or mouse cerebellar slice culture, progesterone accelerated axon myelination (13,14).

[8] = PR^+/+ mice, 48 hours after MCAO

SMILES: C=C1C[C@H]2[C@@H]3CCC4=CC(=O)CC[C@@H]4[C@H]3CC[C@]2(C)[C@@]1(OC(C)=O)C(C)=O [Nestorone®, 16-methylene-17α-acetoxy-19-norpregn-4-ene-3,20-dione]
- neuroprotective efficacy against glutamate toxicity (LDH) ([1]; FIG. 5, NES and PROG at 10−7M): exerted the higher efficacy
- neuroprotective efficacy against 200 μM glutamate (LDH release) compared with progesterone ([1]; dose-response, FIGS. 7A-F): comparable neuroprotective efficacy to that of progesterone
- PCNA expression and neural progenitor cell proliferation [2]: greatest magnitude of PCNA expression and neural progenitor cell proliferation
- remyelination after lysolecithin demyelination [3]: produced remyelination
- total number of BrdU+ cells per hippocampus ([4]; FACS, normalized to vehicle control, FIG. 8B): slightly superior to progesterone in significantly increasing Brd+ cell numbers
- CDC2 protein expression ([4]; Western blot): significantly increased
- PCNA expression at the protein level ([4]; Western blot, FIG. 8A): slightly superior to progesterone
- expression of alpha subunit of ATP synthase-Complex V (CVα) ([4]; Western blot, FIG. 8C): increased CVA expression even greater than progesterone and levonorgestrel
- ratio of Bax/Bcl-2 expression (Bax/Bcl-2): no effect
- androgenic response [5]: no androgenic or estrogenic action at all
- estrogenic response [5]: no androgenic or estrogenic action at all
- glucocorticoid response [5]: does not elicit a glucocorticoid effect except at doses 2.000-fold the therapeutic dose
- proliferation of progenitor cells compared with progesterone ([6]; FIG. 3 and FIG. 4): as effective or even more effective than progesterone
- NPC proliferation (BrdU incorporation) compared with progesterone ([6]; at 24 hours, FIGS. 6A-D): comparably efficacious at their EC100 concentrations
- total infarct volume and ischemic lesions in cerebral cortex and subcortical structures, PR^+/+ mice (PR^lacz mice with MCAO; PR^+/+ mice): clearly reduced
- increase of time on the rotarod (PR^lacz mice with MCAO; [8]): 33%
- reduction of ischemic lesions in cerebral cortex (PR^lacz mice with MCAO; [8]): 22%
- reduction of ischemic lesions in subcortical structures (PR^lacz mice with MCAO; [8]): 52%
- reduction of total infarct volume (PR^lacz mice with MCAO; PR^+/+ mice, 48 hours after MCAO, IP at 1, 6 and 24 hours): 32%
- total infarct volume and ischemic lesions in cerebral cortex and subcortical structures, PR^+/− mice (PR^lacz mice with MCAO; PR^+/− mice): not
- protection against ischemic damage compared with progesterone (PR^lacz mice with MCAO; PR^−/−, PR^+/− and PR^+/+ mice, after ischemia and reperfusion): at least comparable results
- efficient neuroprotective dose (PR^lacz mice with MCAO; after stroke): 0.08 mg/kg
- dose improving neurological outcomes relative to that of progesterone (PR^lacz mice with MCAO; mouse, in vivo): 100 times lower
- microglial density in the penumbra (neuroinflammatory responses) (PR^lacz mice with MCAO; treatment after stroke): reduced microglial density
- neuronal density in the infarct and in the penumbra (PR^lacz mice with MCAO; treatment after stroke): significantly increases the neuronal density
- promyelinating potency relative to PROG [7]: significantly more potent than PROG
- concentration of equal promyelinating activity ([7]; NES at 20 μm as active as PROG at 50 μm (FIG. 1)): 20 μm
- myelination measured by myelin basic protein (MBP) immunoreactivity ([7]; cerebellar slice culture): promote dose-dependent myelination
